Target: T1, hedgehog acyltransferase (Hhat) (Homo sapiens, UniProt Q5VTY9)
T1 construct: Hhat-3C-FLAG-His8 (cDNA base pairs 4 to 1479), DDM-solubilized P100 membrane fraction from HEK293a cells
Assay: stopped click-ELISA kinetics, apparent Km at […] Shh([…])
Assay type: cell-based

T1 sequence (Q5VTY9 2-493): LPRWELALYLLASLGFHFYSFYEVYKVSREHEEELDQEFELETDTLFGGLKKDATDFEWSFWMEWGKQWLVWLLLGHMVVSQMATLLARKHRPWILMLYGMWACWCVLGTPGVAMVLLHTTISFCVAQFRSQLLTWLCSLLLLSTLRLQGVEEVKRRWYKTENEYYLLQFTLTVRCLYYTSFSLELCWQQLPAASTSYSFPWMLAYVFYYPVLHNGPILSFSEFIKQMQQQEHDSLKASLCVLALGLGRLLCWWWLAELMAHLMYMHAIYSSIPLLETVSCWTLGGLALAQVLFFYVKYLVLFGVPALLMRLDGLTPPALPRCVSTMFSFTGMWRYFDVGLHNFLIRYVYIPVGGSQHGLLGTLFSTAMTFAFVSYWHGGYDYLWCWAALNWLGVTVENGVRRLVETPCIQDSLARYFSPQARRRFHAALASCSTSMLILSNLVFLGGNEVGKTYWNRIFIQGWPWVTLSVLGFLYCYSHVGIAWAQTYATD

Question: For C#CCCCCCCCCCCCCC(=O)SCCNC(=O)CCNC(=O)[C@H](O)C(C)(C)COP(=O)(O)OP(=O)(O)OC[C@H]1O[C@@H](n2cnc3c(N)ncnc32)[C@H](O)[C@@H]1OP(=O)(O)O [YnC15-CoA], which Km is on record?
Answer: 0.15 ± 0.05 µM

Reference: paper PMC4615133, “Click chemistry armed enzyme-linked immunosorbent assay to measure palmitoylation by hedgehog acyltransferase” (Analytical Biochemistry, 2015)
